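48-hour exposure; five concentrations; linearly interpolated endpoints. GI50 = concentration required for 50% inhibition of growth.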 Activity calls are given as the source filed them. No stated cut-off is given here; in the data, active = GI50 up to about 1.1 µM and inactive = higher.
Columns and labels:
Experiment in all cases: NCI anticancer screen, dose series, 48 h
[1] = tested on: DLD-1
[2] = tested on: DMS-273
[3] = tested on: HOP-18
[4] = tested on: KM-20L2
[5] = tested on: M19-MEL
[6] = tested on: SNB-78
[7] = tested on: XF498
[8] = tested on: LXFL 529
[9] = tested on: RXF 631

Compound | GI50 [1] | GI50 [2] | GI50 [3] | GI50 [4] | GI50 [5] | GI50 [6] | GI50 [7] | GI50 [8] | GI50 [9]
Nc1nncs1 | 641 µM (inactive) | 450 µM (inactive) | 3030 µM (inactive) | 301 µM (inactive) | 1090 µM (inactive) | 3240 µM (inactive) | 879 µM (inactive) |  | 
COc1ccc(C(N)=O)cc1/N=N/N(C)C | > 100 µM (inactive) | > 100 µM (inactive) | > 100 µM (inactive) | > 100 µM (inactive) | > 100 µM (inactive) |  |  | > 100 µM (inactive) | 
O=C(CCn1[nH]c(=O)c(Cl)c(Cl)c1=O)NOCCCc1ccccc1 | > 100 µM (inactive) | > 100 µM (inactive) | > 100 µM (inactive) | > 100 µM (inactive) | > 100 µM (inactive) | > 100 µM (inactive) | > 100 µM (inactive) | > 100 µM (inactive) | > 100 µM (inactive)
O=C1C=CC(CC(=O)c2ccc3ccccc3c2)O1 (centres undefined) | 28.7 µM (inactive) | 20 µM (inactive) | 35 µM (inactive) | 20.5 µM (inactive) | 43.5 µM (inactive) | 34.9 µM (inactive) | 66.5 µM (inactive) | 18.4 µM (inactive) | 
CC1(C=O)C(=O)CCC2(C)C3CC(=O)OC3CCC12 (centres undefined) | > 100 µM (inactive) | > 100 µM (inactive) | > 100 µM (inactive) | > 100 µM (inactive) | > 100 µM (inactive) |  |  | > 100 µM (inactive) | 
CCC(=O)N1C(=S)SC[C@H]1C(=O)OC | > 100 µM (inactive) | > 100 µM (inactive) | > 100 µM (inactive) | > 100 µM (inactive) | > 100 µM (inactive) | > 100 µM (inactive) | 7.4 µM (inactive) | > 100 µM (inactive) | 
Clc1ccccc1CN1COc2c(ccc3cccnc23)C1 | 4.66 µM (inactive) | 3.42 µM (inactive) |  | 15.7 µM (inactive) | 4.14 µM (inactive) | 3.37 µM (inactive) | 9.68 µM (inactive) |  | 
COC(=O)C1C(=O)CC2CCCCC21 (centres undefined) | > 100 µM (inactive) | > 100 µM (inactive) |  | > 100 µM (inactive) | > 100 µM (inactive) | > 100 µM (inactive) |  | > 100 µM (inactive) | 
CN(/N=C/c1cccc2cccnc12)c1c([N+](=O)[O-])cc([N+](=O)[O-])cc1[N+](=O)[O-] | > 100 µM (inactive) | 7.6 µM (inactive) | > 100 µM (inactive) | > 100 µM (inactive) | > 100 µM (inactive) | > 100 µM (inactive) | > 100 µM (inactive) | > 100 µM (inactive) | > 100 µM (inactive)
CCOP1(=O)C=C(C)C(Cl)=C(C)C1 (centres undefined) | 25.9 µM (inactive) | 13.6 µM (inactive) | 68.7 µM (inactive) | 32.7 µM (inactive) | 21.1 µM (inactive) |  | 26.8 µM (inactive) | 17.3 µM (inactive) | 2.75 µM (inactive)
Cc1ccccc1NC(=O)C1C(=O)N(c2ccccc2C)C(=O)/C1=N\N (centres undefined) | > 100 µM (inactive) |  | > 100 µM (inactive) | > 100 µM (inactive) | > 100 µM (inactive) | > 100 µM (inactive) |  | > 100 µM (inactive) | > 100 µM (inactive)
CCOC(=O)C(=O)Nc1ccc(C)c(C)c1 | > 100 µM (inactive) | 34.8 µM (inactive) |  | > 100 µM (inactive) | > 67.5 µM (inactive) | > 100 µM (inactive) |  | > 86.9 µM (inactive) | > 100 µM (inactive)
NCCCCCCNCc1cccc2ccccc12 | > 100 µM (inactive) |  | 24.2 µM (inactive) | 58.3 µM (inactive) | > 100 µM (inactive) | > 100 µM (inactive) | 44.2 µM (inactive) | > 100 µM (inactive) | 
CCCCCCCCCCCCCCCC(=O)OCCOCCOCCOCc1ccccc1 | > 100 µM (inactive) | > 100 µM (inactive) | 50.8 µM (inactive) |  | > 100 µM (inactive) | > 100 µM (inactive) | > 100 µM (inactive) |  | 
O=C(/C=C/c1ccccc1O)c1cccc2ccccc12 | 37.3 µM (inactive) | 54.5 µM (inactive) | 28.1 µM (inactive) | > 100 µM (inactive) | > 100 µM (inactive) | > 100 µM (inactive) | 25.8 µM (inactive) | 36.2 µM (inactive) | > 100 µM (inactive)
COc1cc(/C=C/C(=O)Oc2ccccc2)ccc1C(=O)O/C=C/c1ccccc1 | > 100 µM (inactive) | > 100 µM (inactive) | > 100 µM (inactive) | > 100 µM (inactive) | > 100 µM (inactive) | > 100 µM (inactive) | > 100 µM (inactive) |  | 

Compound | GI50 [1] | GI50 [2] | GI50 [3] | GI50 [4] | GI50 [5] | GI50 [6] | GI50 [7] | GI50 [8] | GI50 [9]
CC1=N/C(=C\c2ccc(N)cc2)C(=O)N1Nc1nnc(NN2C(=O)/C(=C/c3ccc(N)cc3)N=C2C)c2ccccc12 | > 100 µM (inactive) | 77.3 µM (inactive) | 27.1 µM (inactive) | > 100 µM (inactive) | 38.1 µM (inactive) |  |  | 36.3 µM (inactive) | 
N=C(N)SCc1cn2ccccc2n1 | 77.8 µM (inactive) | > 100 µM (inactive) | > 100 µM (inactive) |  | > 100 µM (inactive) | > 100 µM (inactive) | > 100 µM (inactive) |  | 
COc1ccc2cc1Oc1ccc(cc1)CC1c3cc(c(OC)cc3CCN1C)Oc1c3c(cc4c1C(C2)N(C)CC4)OCO3 (centres undefined) | 17 µM (inactive) | 3.44 µM (inactive) |  | 2.08 µM (inactive) | 3.85 µM (inactive) | 13.9 µM (inactive) | 9.55 µM (inactive) | 13 µM (inactive) | 13.7 µM (inactive)
CC1=C(C(=O)Nc2ccccc2C)C(c2ccc(C3C(C(=O)Nc4ccccc4C)=CNC=C3C(=O)Nc3ccccc3C)cc2)C(C(=O)Nc2ccccc2C)=C(C)N1 | 13.6 µM (inactive) | 20.7 µM (inactive) | 37 µM (inactive) | 14.7 µM (inactive) | 23.8 µM (inactive) | 30.2 µM (inactive) | 22.8 µM (inactive) | 10.9 µM (inactive) | 
CCCCNCCCNCCCNC(=O)c1csc(-c2csc(CCNC(=O)C(NC(=O)C(C)C(O)C(C)NC(=O)C(NC(=O)c3nc(C(CC(N)=O)NCC(N)C(N)=O)nc(N)c3C)C(OC3OC(CO)C(O)C(O)C3OC3OC(CO)C(O)C(OC(N)=O)C3O)c3c[nH]cn3)C(C)O)n2)n1 (centres undefined) | 20.9 µM (inactive) | < 0.0458 µM (active) | 37.7 µM (inactive) | 61.5 µM (inactive) | 8.89 µM (inactive) | > 73.3 µM (inactive) |  | 40.6 µM (inactive) | 3.58 µM (inactive)
O=C1c2cccc3c(Cl)ccc(c23)C(=O)N1CCCN1CCN(CCCN2C(=O)c3cccc4c(Cl)ccc(c34)C2=O)CC1 | 50.5 µM (inactive) | > 100 µM (inactive) | > 100 µM (inactive) | 46.2 µM (inactive) |  | 90.8 µM (inactive) | > 100 µM (inactive) | > 100 µM (inactive) | 76.7 µM (inactive)
O=C1OC2(c3ccccc3Oc3ccccc32)c2ccccc21 | > 100 µM (inactive) | > 100 µM (inactive) | > 100 µM (inactive) | > 100 µM (inactive) | > 100 µM (inactive) | > 100 µM (inactive) |  | > 100 µM (inactive) | 
OC(c1cc2ccccc2[nH]1)C(O)(c1cc2ccccc2[nH]1)c1cc2ccccc2[nH]1 (centres undefined) | 11 µM (inactive) | 17.9 µM (inactive) |  | 10.1 µM (inactive) | 7.06 µM (inactive) |  |  | 10 µM (inactive) | 17.4 µM (inactive)
Cc1ccc(SCC(=O)C2=C(O)CCCC2=O)cc1 | > 100 µM (inactive) | > 100 µM (inactive) | > 100 µM (inactive) | > 100 µM (inactive) | > 100 µM (inactive) | > 100 µM (inactive) | > 100 µM (inactive) | > 100 µM (inactive) | > 100 µM (inactive)
CC1C2CC=CC(=O)[C@@]2(C)CCC12OCCO2 (some centres undefined) | > 100 µM (inactive) | > 100 µM (inactive) |  | 49.9 µM (inactive) | > 100 µM (inactive) | > 100 µM (inactive) |  | > 100 µM (inactive) | 
CC(=O)O[C@H]1CSC[C@@H](OC(C)=O)C1[N+](=O)[O-] (some centres undefined) |  | > 100 µM (inactive) | 50.7 µM (inactive) | > 100 µM (inactive) | 47.3 µM (inactive) | 33.4 µM (inactive) |  | 18 µM (inactive) | > 100 µM (inactive)
O=C1/C(=C/c2ccc(Br)cc2)CCC/C1=C\c1ccc(Br)cc1 | 5.04 µM (inactive) | 3.57 µM (inactive) | 13.6 µM (inactive) | 5.22 µM (inactive) | 4.3 µM (inactive) | 18.7 µM (inactive) | 21.8 µM (inactive) | 3.82 µM (inactive) | 5.05 µM (inactive)
COc1c(C)c(O)c2c(=O)cc(-c3ccccc3)oc2c1C | > 100 µM (inactive) |  | > 100 µM (inactive) | > 100 µM (inactive) | > 100 µM (inactive) | > 100 µM (inactive) |  | > 100 µM (inactive) | > 100 µM (inactive)
C=C1C(=O)O[C@@H]2[C@H]1CCC(C)=C1C=CC(=O)[C@]12C | 14.9 µM (inactive) | 17.3 µM (inactive) | 15.9 µM (inactive) |  |  | 4.61 µM (inactive) |  | 13.8 µM (inactive) | 11.3 µM (inactive)
CCC1(c2ccncc2)CCC(=O)NC1=O (centres undefined) [ROGLETIMIDE] | > 100 µM (inactive) |  |  | > 100 µM (inactive) | > 100 µM (inactive) | > 100 µM (inactive) | > 100 µM (inactive) | > 100 µM (inactive) | > 100 µM (inactive)
